# Laboratory results: ChEMBL document CHEMBL1131717, “Uncarinic acids: phospholipase Cgamma1 inhibitors from hooks of Uncaria rhynchophylla” (Bioorg Med Chem Lett, 1999)
# Assays:
# HCT-15 = assay: Growth inhibitory effect of compound was measured on HCT-15 human colon adenocarcinoma cancer cell line; assay type: functional, cell-based
# [1] = target: T1, 1-phosphatidylinositol 4,5-bisphosphate phosphodiesterase gamma-1 (Homo sapiens, UniProt P19174); assay: Inhibitory concentration was evaluated against phospholipase C-gamma1
# T1 sequence (P19174 whole entry): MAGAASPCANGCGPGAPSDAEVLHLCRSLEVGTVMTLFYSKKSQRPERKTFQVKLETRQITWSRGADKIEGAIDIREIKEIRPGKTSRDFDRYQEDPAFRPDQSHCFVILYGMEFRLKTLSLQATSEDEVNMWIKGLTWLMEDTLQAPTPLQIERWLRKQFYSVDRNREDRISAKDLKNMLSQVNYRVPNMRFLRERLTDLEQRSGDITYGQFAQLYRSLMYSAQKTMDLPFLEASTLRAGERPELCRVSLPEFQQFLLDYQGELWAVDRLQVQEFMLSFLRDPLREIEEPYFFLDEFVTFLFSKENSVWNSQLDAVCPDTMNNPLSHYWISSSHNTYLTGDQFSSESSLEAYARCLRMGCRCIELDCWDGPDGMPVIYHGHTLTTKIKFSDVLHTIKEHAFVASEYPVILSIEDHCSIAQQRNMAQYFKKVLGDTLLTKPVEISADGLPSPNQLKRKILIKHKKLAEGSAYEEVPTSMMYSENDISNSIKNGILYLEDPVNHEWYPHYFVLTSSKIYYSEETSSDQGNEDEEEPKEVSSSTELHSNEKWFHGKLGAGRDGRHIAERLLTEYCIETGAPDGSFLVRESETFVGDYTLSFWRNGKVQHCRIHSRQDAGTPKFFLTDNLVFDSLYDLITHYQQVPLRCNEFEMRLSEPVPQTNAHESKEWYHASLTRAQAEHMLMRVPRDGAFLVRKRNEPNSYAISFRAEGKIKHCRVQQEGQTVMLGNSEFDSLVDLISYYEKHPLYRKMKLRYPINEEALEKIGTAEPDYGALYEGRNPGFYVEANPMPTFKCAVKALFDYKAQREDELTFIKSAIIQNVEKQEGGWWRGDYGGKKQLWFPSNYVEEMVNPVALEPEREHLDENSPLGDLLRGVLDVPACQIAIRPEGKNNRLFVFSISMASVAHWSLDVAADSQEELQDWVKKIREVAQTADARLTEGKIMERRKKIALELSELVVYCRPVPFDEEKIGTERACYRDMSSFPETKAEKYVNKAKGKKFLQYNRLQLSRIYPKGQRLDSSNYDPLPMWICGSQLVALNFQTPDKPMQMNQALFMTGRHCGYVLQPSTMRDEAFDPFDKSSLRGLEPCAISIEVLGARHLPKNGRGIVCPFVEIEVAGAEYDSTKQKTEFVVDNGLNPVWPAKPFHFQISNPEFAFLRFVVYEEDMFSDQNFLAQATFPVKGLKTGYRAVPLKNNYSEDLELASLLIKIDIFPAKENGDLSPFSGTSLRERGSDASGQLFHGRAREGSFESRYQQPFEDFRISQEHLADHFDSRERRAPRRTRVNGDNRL
# HT1197 = assay: Growth inhibitory effect of compound was measured on HT1197 human bladder adenocarcinoma cancer cell line; assay type: functional, cell-based
# MCF7 = assay: Growth inhibitory effect of compound was measured on MCF-7 human breast adenocarcinoma cancer cell line; assay type: functional, cell-based
# A549 = assay: Growth inhibitory effect of compound was measured on A-549 human lung adenocarcinoma cancer cell line; assay type: functional, cell-based
SMILES,IC50 (HCT-15) [µg/mL],IC50 [1] [µM],IC50 (HT1197) [µg/mL],IC50 (MCF7) [µg/mL],IC50 (A549) [µg/mL]
COc1cc(/C=C/C(=O)OC[C@@]23CC[C@@]4(C(=O)O)CCC(C)(C)C[C@H]4C2=CCC2[C@@]4(C)CC[C@H](O)C(C)(C)C4CC[C@]23C)ccc1O (stereo not given in full),1.41,35.7,3.53,2.03,0.73
COc1cc(/C=C\C(=O)OC[C@@]23CC[C@@]4(C(=O)O)CCC(C)(C)C[C@H]4C2=CCC2[C@@]4(C)CC[C@H](O)C(C)(C)C4CC[C@]23C)ccc1O (stereo not given in full),1.44,44.6,2.34,2.59,1.79
